Experimental data taken from patent US20260232658A1, “AZETIDINYL BENZOXAZOLE COMPOUNDS AND THEIR USE AS MER AND AXL INHIBITORS” (DONG-A ST CO., LTD., priority 2022, published 2026).

Key:
human MER (528-end) = target: T1, human MER (528-end) (Homo sapiens, UniProt Q12866); assay: HTRF kinase activity biochemical assay, MER; conditions: recombinant kinase, 10 uM ATP, 30 minutes pre-incubation; read-out: HTRF MERTK IC50;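 further: phosphorylation of a biotin-tagged tyrosine kinase substrate detected by Eu3+-cryptate antibody and streptavidin-XL665 time-resolved fluorescence, read after 1 h at room temperature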
T1 construct: human MER (528-end); purchased Carnabio, Japan
T1 sequence (Q12866 528-999 limits assumed): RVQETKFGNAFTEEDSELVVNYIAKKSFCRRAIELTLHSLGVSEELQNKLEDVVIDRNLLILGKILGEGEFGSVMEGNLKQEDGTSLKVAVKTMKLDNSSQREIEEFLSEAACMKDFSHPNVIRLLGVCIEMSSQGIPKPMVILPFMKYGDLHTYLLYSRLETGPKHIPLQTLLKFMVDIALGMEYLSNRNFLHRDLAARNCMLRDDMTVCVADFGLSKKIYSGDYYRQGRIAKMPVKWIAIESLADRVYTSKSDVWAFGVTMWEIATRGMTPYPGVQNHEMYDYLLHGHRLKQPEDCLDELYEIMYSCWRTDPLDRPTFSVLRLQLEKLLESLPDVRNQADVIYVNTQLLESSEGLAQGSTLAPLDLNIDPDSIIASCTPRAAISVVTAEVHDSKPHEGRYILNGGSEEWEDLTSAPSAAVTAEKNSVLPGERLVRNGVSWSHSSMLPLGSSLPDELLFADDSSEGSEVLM

TYRO3 (455-end) = target: T2, TYRO3 (455-end) (Homo sapiens, UniProt Q06418); assay: HTRF kinase activity biochemical assay, TYRO3; conditions: recombinant kinase, 10 uM ATP, 30 minutes pre-incubation; read-out: HTRF TYRO IC50;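 further: biotinylated tyrosine kinase substrate phosphorylation detected via streptavidin-XL665 and Eu3+-cryptate anti-phospho antibody time-resolved fluorescence, read after 1 h detection at room temperature, 384-well format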
T2 construct: TYRO3 (455-end); purchased SignalChem, Canada
T2 sequence (Q06418 455-890 limits assumed): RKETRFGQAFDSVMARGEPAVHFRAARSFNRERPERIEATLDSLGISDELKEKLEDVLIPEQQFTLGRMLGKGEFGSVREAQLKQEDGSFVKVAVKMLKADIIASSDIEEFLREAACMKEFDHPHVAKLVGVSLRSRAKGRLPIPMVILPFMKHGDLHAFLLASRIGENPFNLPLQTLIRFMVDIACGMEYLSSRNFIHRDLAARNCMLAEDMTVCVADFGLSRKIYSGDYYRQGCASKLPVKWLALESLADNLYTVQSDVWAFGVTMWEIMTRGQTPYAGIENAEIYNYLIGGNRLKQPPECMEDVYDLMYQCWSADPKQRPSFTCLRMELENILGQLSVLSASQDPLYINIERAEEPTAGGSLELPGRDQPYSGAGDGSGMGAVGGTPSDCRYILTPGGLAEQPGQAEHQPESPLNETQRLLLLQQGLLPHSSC

human AXL (473-end) = target: T3, human AXL (473-end) (Homo sapiens, UniProt P30530); assay: HTRF kinase activity biochemical assay, AXL; conditions: recombinant kinase, 10 uM ATP, 30 minutes pre-incubation; read-out: HTRF AXL IC50;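 further: phosphorylation of a biotinylated tyrosine kinase substrate detected via Eu3+-cryptate anti-TK antibody and streptavidin-XL665, fluorescence read after a 1 h incubation at room temperature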
T3 construct: human AXL (473-end); purchased SignalChem, Canada
T3 sequence (P30530 473-894 limits assumed): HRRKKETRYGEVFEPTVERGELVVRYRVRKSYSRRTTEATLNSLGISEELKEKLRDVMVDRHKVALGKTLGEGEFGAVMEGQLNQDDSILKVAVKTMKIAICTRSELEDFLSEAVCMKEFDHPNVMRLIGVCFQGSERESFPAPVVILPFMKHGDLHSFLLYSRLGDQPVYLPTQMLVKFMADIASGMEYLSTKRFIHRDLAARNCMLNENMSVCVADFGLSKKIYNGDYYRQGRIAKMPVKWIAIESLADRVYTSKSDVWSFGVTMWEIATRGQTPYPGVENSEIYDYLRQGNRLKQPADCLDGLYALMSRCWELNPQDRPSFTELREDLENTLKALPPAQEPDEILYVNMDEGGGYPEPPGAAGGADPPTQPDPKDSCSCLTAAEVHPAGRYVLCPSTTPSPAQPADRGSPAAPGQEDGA

SMILES	IC50 (human MER (528-end)) [nM]	IC50 (TYRO3 (455-end)) [nM]	IC50 (human AXL (473-end)) [nM]
Cn1cc(Nc2ncc(C3CN(c4nc5ccc(-c6cnn(C)c6)cc5o4)C3)nc2C(N)=O)cn1 [Example 92, 3-[(1-methyl-1H-pyrazol-4-yl)amino]-6-{1-[6-(1-methyl-1H-pyrazol-4-yl)-1,3-benzoxazol-2-yl]azetidin-3-yl}pyrazine-2-carboxamide]	< 1	80	3
Cn1cc(Nc2ccc(C3CN(c4nc5ccc(Oc6cccnn6)cc5o4)C3)nc2C(N)=O)cn1 [Example 103, 3-[(1-methyl-1H-pyrazol-4-yl)amino]-6-(1-{6-[(pyridazin-3-yl)oxy]-1,3-benzoxazol-2-yl}azetidin-3-yl)pyridine-2-carboxamide]	< 1	710	3
Cn1cc(Nc2ncc(C3CN(c4nc5ccc(OCC(CO)CO)cc5o4)C3)nc2C(N)=O)cn1 [Example 51, 6-(1-{6-[3-hydroxy-2-(hydroxymethyl)propoxy]-1,3-benzoxazol-2-yl}azetidin-3-yl)-3-[(1-methyl-1H-pyrazol-4-yl)amino]pyrazine-2-carboxamide]	3	1740	6
COCCn1cc(-c2ccc3nc(N4CC(c5cnc(Nc6cnn(C)c6)c(C(N)=O)n5)C4)oc3c2)cn1 [Example 91, 6-(1-{6-[1-(2-methoxyethyl)-1H-pyrazol-4-yl]-1,3-benzoxazol-2-yl}azetidin-3-yl)-3-[(1-methyl-1H-pyrazol-4-yl)amino]pyrazine-2-carboxamide]	2	1430	4
COc1cnc(Oc2ccc3nc(N4CC(c5cnc(Nc6cnn(C)c6)c(C(N)=O)n5)C4)oc3c2)nc1 [Example 102, 6-(1-{6-[(5-methoxypyrimidin-2-yl)oxy]-1,3-benzoxazol-2-yl}azetidin-3-yl)-3-[(1-methyl-1H-pyrazol-4-yl)amino]pyrazine-2-carboxamide]	< 1	100	2
Cc1nnc(COc2ccc3nc(N4CC(c5cnc(Nc6cnn(C)c6)c(C(N)=O)n5)C4)oc3c2)o1 [Example 86, 6-(1-{6-[(5-methyl-1,3,4-oxadiazol-2-yl)methoxy]-1,3-benzoxazol-2-yl}azetidin-3-yl)-3-[(1-methyl-1H-pyrazol-4-yl)amino]pyrazine-2-carboxamide]	5	63	11
Cc1cnc(COc2ccc3nc(N4CC(c5cnc(Nc6cnn(C)c6)c(C(N)=O)n5)C4)oc3c2)s1 [Example 82, 3-[(1-methyl-1H-pyrazol-4-yl)amino]-6-(1-{6-[(5-methyl-1,3-thiazol-2-yl)methoxy]-1,3-benzoxazol-2-yl}azetidin-3-yl)pyrazine-2-carboxamide]	< 1	150	3
Cc1ncc(-c2ccc3nc(N4CC(c5cnc(Nc6cnn(C)c6)c(C(N)=O)n5)C4)oc3c2)s1 [Example 99, 3-[(1-methyl-1H-pyrazol-4-yl)amino]-6-{1-[6-(2-methyl-1,3-thiazol-5-yl)-1,3-benzoxazol-2-yl]azetidin-3-yl}pyrazine-2-carboxamide]	< 1	24	1.6
Cn1cc(Nc2ncc(C3CN(c4nc5ccc(CC(=O)N6CCC[C@H]6CO)cc5o4)C3)nc2C(N)=O)cn1 [Example 66, 6-[1-(6-{2-[(2S)-2-(hydroxymethyl)pyrrolidin-1-yl]-2-oxoethyl}-1,3-benzoxazol-2-yl)azetidin-3-yl]-3-[(1-methyl-1H-pyrazol-4-yl)amino]pyrazine-2-carboxamide]	2	2900	3
Cn1cc(Nc2ncc(C3CN(c4nc5ccc(OCCC(C)(C)OC(=O)CN)cc5o4)C3)nc2C(N)=O)cn1 [Example 95, 4-{[2-(3-{6-carbamoyl-5-[(1-methyl-1H-pyrazol-4-yl)amino]pyrazin-2-yl}azetidin-1-yl)-1,3-benzoxazol-6-yl]oxy}-2-methylbutan-2-yl glycinate]	< 1	280	3
Cn1cc(Nc2ncc(C3CN(c4nc5ccc(CC(=O)N6CCCC6)cc5o4)C3)nc2C(N)=O)cn1 [Example 65, 3-[(1-methyl-1H-pyrazol-4-yl)amino]-6-(1-{6-[2-oxo-2-(pyrrolidin-1-yl)ethyl]-1,3-benzoxazol-2-yl}azetidin-3-yl)pyrazine-2-carboxamide]	< 1	1010	1
CCOC(=O)Cn1cc(COc2ccc3nc(N4CC(c5cnc(Nc6cnn(C)c6)c(C(N)=O)n5)C4)oc3c2)cn1 [Example 104C, ethyl [4-({[2-(3-{6-carbamoyl-5-[(1-methyl-1H-pyrazol-4-yl)amino]pyrazin-2-yl}azetidin-1-yl)-1,3-benzoxazol-6-yl]oxy}methyl)-1H-pyrazol-1-yl]acetate]	4	620	27

Further lines, results first:

IC50 (human MER (528-end)) [nM]	IC50 (TYRO3 (455-end)) [nM]	IC50 (human AXL (473-end)) [nM]	SMILES
1	280	2	Cn1cc(Nc2ncc(C3CN(c4nc5ccc(C6=CCOCC6)cc5o4)C3)nc2C(N)=O)cn1 [Example 11, 6-{1-[6-(3,6-dihydro-2H-pyran-4-yl)-1,3-benzoxazol-2-yl]azetidin-3-yl}-3-[(1-methyl-1H-pyrazol-4-yl)amino]pyrazine-2-carboxamide]
10	2130	29	Cn1cc(Nc2ncc(C3CN(c4nc5ccc(OCC(N)=O)cc5o4)C3)nc2C(N)=O)cn1 [Example 37, 6-{1-[6-(2-amino-2-oxoethoxy)-1,3-benzoxazol-2-yl]azetidin-3-yl}-3-[(1-methyl-1H-pyrazol-4-yl)amino]pyrazine-2-carboxamide]
2	460	8	Cn1cc(Nc2ncc(C3CN(c4nc5ccc(OCCO)cc5o4)C3)nc2C(N)=O)cn1 [Example 40, 6-{1-[6-(2-hydroxyethoxy)-1,3-benzoxazol-2-yl]azetidin-3-yl}-3-[(1-methyl-1H-pyrazol-4-yl)amino]pyrazine-2-carboxamide]
< 1	92	2	Cn1cc(Nc2ncc(C3CN(c4nc5ccc(OCC6CC(CO)C6)cc5o4)C3)nc2C(N)=O)cn1 (stereo not drawn) [Example 56, 6-[1-(6-{[3-(hydroxymethyl)cyclobutyl]methoxy}-1,3-benzoxazol-2-yl)azetidin-3-yl]-3-[(1-methyl-1H-pyrazol-4-yl)amino]pyrazine-2-carboxamide]
1	330	5	Cn1cc(Nc2ncc(C3CN(c4nc5ccc(OCC(=O)C6CC6)cc5o4)C3)nc2C(N)=O)cn1 [Example 87, 6-{1-[6-(2-cyclopropyl-2-oxoethoxy)-1,3-benzoxazol-2-yl]azetidin-3-yl}-3-[(1-methyl-1H-pyrazol-4-yl)amino]pyrazine-2-carboxamide]
3	690	4	Cn1cc(Nc2ncc(C3CN(c4nc5ccc(C6=CCCC6)cc5o4)C3)nc2C(N)=O)cn1 [Example 10A, 6-{1-[6-(cyclopent-1-en-1-yl)-1,3-benzoxazol-2-yl]azetidin-3-yl}-3-[(1-methyl-1H-pyrazol-4-yl)amino]pyrazine-2-carboxamide]
1	130	2	COCCCc1ccc2nc(N3CC(c4cnc(Nc5cnn(C)c5)c(C(N)=O)n4)C3)oc2c1 [Example 33, 6-{1-[6-(3-methoxypropyl)-1,3-benzoxazol-2-yl]azetidin-3-yl}-3-[(1-methyl-1H-pyrazol-4-yl)amino]pyrazine-2-carboxamide]
3	550	9	Cn1cc(Nc2ncc(C3CN(c4nc5ccc(C6CCOC6)cc5o4)C3)nc2C(N)=O)cn1 (stereo not drawn) [Example 15, 3-[(1-methyl-1H-pyrazol-4-yl)amino]-6-{1-[6-(oxolan-3-yl)-1,3-benzoxazol-2-yl]azetidin-3-yl}pyrazine-2-carboxamide]
